Key:
Experiment in all cases: relative viability (nuclei count vs DMSO), 5 days (fraction); higher = more cells survive
[1] = compound: C#Cc1cccc(Nc2ncnc3cc(OC)c(OCCCCCCC(=O)NO)cc23)c1 [CUDC-101] + Nc1ncn([C@H]2C[C@H](O)[C@@H](CO)O2)c(=O)n1 [Decitabine] (partner 2 µM)
Summary of the method: (§1)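 Values are medians from duplicate plates. Each reflects relative viability, defined as the nuclei count of treated wells over that of vehicle wells. Lung cancer cell lines in 1536-well plates were pin-tool dosed one day after seeding with one drug alone or with a fixed anchor-drug dose plus five library-drug doses (not always all listed) in √10 steps, then fixed, stained and imaged at 4× after 5 days.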

[2] = compound: COc1cc(N2CCC(N3CCN(C)CC3)CC2)ccc1Nc1ncc(Cl)c(Nc2ccccc2S(=O)(=O)C(C)C)n1 [NVP-TAE684] + NC(=O)Nc1cc(-c2cccc(F)c2)sc1C(=O)N[C@H]1CCCNC1 [AZD7762] (partner 0.2 µM)
Summary of the method: as §1

[3] = compound: COc1cc(N2CCC(N3CCN(C)CC3)CC2)ccc1Nc1ncc(Cl)c(Nc2ccccc2S(=O)(=O)C(C)C)n1 [NVP-TAE684] + CC(=O)Nc1cccc(-n2c(=O)n(C3CC3)c(=O)c3c(Nc4ccc(I)cc4F)n(C)c(=O)c(C)c32)c1 [Trametinib] (partner 0.02 µM)
Summary of the method: as §1

[4] = compound: C1=CC=C2C(=C1)N=C(S2)C(C#N)C3=NC(=NC=C3)NCCC4=CN=CC=C4 + NC(=O)Nc1cc(-c2cccc(F)c2)sc1C(=O)N[C@H]1CCCNC1 [AZD7762] (partner 0.2 µM)
Summary of the method: as §1

[5] = compound: COc1cc(N2CCC(N3CCN(C)CC3)CC2)ccc1Nc1ncc(Cl)c(Nc2ccccc2S(=O)(=O)C(C)C)n1 [NVP-TAE684] + O=C(CCCCCCC(=O)Nc1ccccc1)NO [Vorinostat] (partner 1 µM)
Summary of the method: as §1

| Cell Line | relative viability ([1]; first compound 0.01 µM) | relative viability ([1]; first compound 0.03162 µM) | relative viability ([1]; first compound 0.1 µM) | relative viability ([1]; first compound 0.3162 µM) | relative viability ([1]; first compound 1 µM) | relative viability ([2]; first compound 0.2 µM) | relative viability ([2]; first compound 0.6325 µM) | relative viability ([2]; first compound 2 µM) | relative viability ([3]; first compound 0.2 µM) | relative viability ([3]; first compound 0.6325 µM) | relative viability ([3]; first compound 2 µM) | relative viability ([4]; first compound 0.005 µM) | relative viability ([4]; first compound 0.01581 µM) | relative viability ([4]; first compound 0.05 µM) | relative viability ([4]; first compound 0.1581 µM) | relative viability ([4]; first compound 0.5 µM) | relative viability ([5]; first compound 0.2 µM) | relative viability ([5]; first compound 0.6325 µM) | relative viability ([5]; first compound 2 µM) |
| --- | --- | --- | --- | --- | --- | --- | --- | --- | --- | --- | --- | --- | --- | --- | --- | --- | --- | --- | --- |
| NCI-H2087 | 0.245 | 0.313 | 0.256 | 0.251 | 0.237 | 1.47 | 1.37 | 1.22 | 0.175 | 0.211 | 0.168 | 1.42 | 1.39 | 1.41 | 1.45 | 1.06 | 0.917 | 0.492 | 0.601 |
| NCI-H2126 | 0.564 | 0.572 | 0.597 | 0.567 | 0.519 | 1.03 | 1.01 | 0.684 | 0.628 | 0.637 | 0.388 | 0.969 | 1.06 | 1.04 | 1.07 | 0.974 | 0.808 | 0.732 | 0.443 |
| NCI-H2170 | 0.416 | 0.514 | 0.485 | 0.444 | 0.391 | 1.04 | 0.814 | 0.785 | 0.861 | 0.947 | 0.916 | 0.861 | 0.995 | 0.861 | 0.968 | 0.744 | 0.771 | 0.763 | 0.824 |
| NCI-H2342 | 0.737 | 0.718 | 0.739 | 0.777 | 0.709 | 0.463 | 0.437 | 0.349 | 0.77 | 0.935 | 0.638 | 0.546 | 0.484 | 0.49 | 0.583 | 0.467 | 0.848 | 0.776 | 0.678 |
| NCI-H2347 | 0.636 | 0.585 | 0.672 | 0.591 | 0.576 | 0.723 | 0.613 | 0.628 | 0.275 | 0.264 | 0.355 | 0.782 | 0.815 | 0.716 | 0.839 | 0.729 | 0.538 | 0.588 | 0.44 |
| NCI-H2405 | 0.853 | 0.705 | 0.776 | 0.762 | 0.643 | 0.767 | 0.598 | 0.31 | 0.578 | 0.556 | 0.336 | 0.705 | 0.66 | 0.832 | 0.829 | 0.48 | 1.09 | 0.896 | 0.518 |
| NCI-H3122 | 0.402 | 0.4 | 0.51 | 0.461 | 0.485 | 0.22 | 0.184 | 0.127 | 0.12 | 0.148 | 0.0944 | 0.975 | 1.16 | 0.96 | 1 | 1 | 0.273 | 0.229 | 0.103 |
| PC-3 [JPC-3] | 0.773 | 0.717 | 0.54 | 0.723 | 0.476 | 0.821 | 0.673 | 0.54 | 0.721 | 0.572 | 0.58 | 0.702 | – | 0.822 | 0.997 | 0.654 | 0.908 | 0.72 | 0.578 |
